Active and inactive are the calls of the source. The rule behind the calls is not given here.
Key:
[1] = AUC (0 to infinity) in CD-1 mouse at 1 mg/kg, iv measured up to 24 hrs by LC-MS/MS analysis; type: ADME, organism-based; details: in vivo
[2] = Cytotoxicity against human 786O cells assessed as cell viability measured after 48 hrs by CCK-8 assay; type: toxicity, cell-based, 786-0
[3] = Cytotoxicity against human HepG2 cells assessed as cell viability measured after 48 hrs by CCK-8 assay; type: toxicity, cell-based
Influenza A virus [4] = experiment: Antiviral activity against influenza strain A/Aichi/ 2/1968 (H3N2) infected in MDCK cells assessed as reduction of virus-induced cytopathic effect measured after 2 days incubation; type: functional, organism-based; details: 48 h
Influenza A virus [5] = experiment: In vivo antiviral activity against influenza strain A/WSN/1933 (H1N1) infected in BALB/c mouse assessed as increase in mouse survival at 10 to 40 mg/kg, IG treated 12 hrs after infection measured on 9 dpi; type: functional, organism-based; details: dose 10-40 mg/kg, time 9.0 day
[6] = AUC (0 to infinity) in CD-1 mouse at 15 mg/kg, po measured up to 24 hrs by LC-MS/MS analysis; type: ADME, organism-based; details: in vivo
[7] = Cytotoxicity against human Huh-7 cells assessed as cell viability measured after 48 hrs by CCK-8 assay; type: toxicity, cell-based
Influenza A virus [8] = experiment: In vivo antiviral activity against influenza strain A/WSN/1933 (H1N1) infected in BALB/c mouse assessed as improvement in alveolar collapse in lungs at 20 to 40 mg/kg, IG treated 12 hrs after infection measured on 9 dpi by histopathological analysis; type: functional, organism-based; details: dose 20-40 mg/kg, time 9.0 day
[9] = Selectivity index, ratio of CC50 for dog MDCK cells to EC50 for antiviral activity against influenza strain A/Aichi/ 2/1968 (H3N2) infected in MDCK cells; type: toxicity, cell-based; details: read-out: Selectivity Index
[10] = Selectivity index, ratio of CC50 for dog MDCK cells to EC50 for antiviral activity against influenza strain A/WSN/1933 (H1N1) infected in MDCK cells; type: toxicity, cell-based; details: read-out: Selectivity Index
[11] = Cytotoxicity against human Hep3B cells assessed as cell viability measured after 48 hrs by CCK-8 assay; type: toxicity, cell-based, Hep 3B2
Influenza A virus [12] = experiment: Antiviral activity against influenza virus clinical strain H3N2 (A/Guangdong/2/2023) infected in MDCK cells assessed as reduction of virus-induced cytopathic effect measured after 2 days incubation; type: functional, organism-based; details: 48 h
Influenza A virus [13] = experiment: Antiviral activity against influenza strain A/WSN/1933 (H1N1) infected in MDCK cells assessed as reduction of virus-induced cytopathic effect measured after 2 days incubation; type: functional, organism-based; details: 48 h
[14] = Oral bioavailability in CD-1 mouse at 15 mg/kg measured up to 24 hrs by LC-MS/MS analysis; type: ADME, organism-based; details: in vivo
Influenza A virus [15] = experiment: In vivo antiviral activity against influenza strain A/WSN/1933 (H1N1) infected in BALB/c mouse assessed as improvement in septal thickening in lungs at 20 to 40 mg/kg, IG treated 12 hrs after infection measured on 9 dpi by histopathological analysis; type: functional, organism-based; details: dose 20-40 mg/kg, time 9.0 day
Influenza A virus [16] = experiment: In vivo antiviral activity against influenza strain A/WSN/1933 (H1N1) infected in BALB/c mouse assessed as weight regaining at 10 to 40 mg/kg, IG treated 12 hrs after infection measured on 9 dpi; type: functional, organism-based; details: dose 10-40 mg/kg, time 9.0 day
[17] = Metabolic stability in human liver microsomes assessed as intrinsic clearance measured up to 60 mins by LC-MS/MS analysis; type: ADME, Microsome; details: read-out: CLH
[18] = Metabolic stability in mouse liver microsomes assessed as half life measured up to 60 mins by LC-MS/MS analysis; type: ADME, Microsome
[19] = Cytotoxicity against dog MDCK cells assessed as cell viability measured after 48 hrs by CCK-8 assay; type: toxicity, cell-based, Canis lupus familiaris
[20] = MRT (0 to infinity) in CD-1 mouse at 15 mg/kg, po measured up to 24 hrs by LC-MS/MS analysis; type: ADME, organism-based; details: in vivo
HEK293T = experiment: Inhibition of H1N1 influenza virus RdRp extracted for human 293T cells assessed as luminescence signal after 24 hrs incubation by Firefly/Renilla luciferase assay; type: cell-based; details: Influenza A virus, dose 0.625-12.5 nM
[21] = Half life in CD-1 mouse at 1 mg/kg, iv measured up to 24 hrs by LC-MS/MS analysis; type: ADME, organism-based; details: in vivo
[22] = Cmax in CD-1 mouse at 15 mg/kg, po measured up to 24 hrs by LC-MS/MS analysis; type: ADME, organism-based; details: in vivo
[23] = Metabolic stability in human liver microsomes assessed as half life measured up to 60 mins by LC-MS/MS analysis; type: ADME, Microsome
Mus musculus [24] = experiment: In vivo inhibition of […] (PA) protein expression in H1N1 influenza virus infected in BALB/c mouse at 20 to 40 mg/kg single oral dose by Western blot analysis; type: functional, organism-based; details: dose 20-40 mg/kg
[25] = Half life in CD-1 mouse at 15 mg/kg, po measured up to 24 hrs by LC-MS/MS analysis; type: ADME, organism-based; details: in vivo
[26] = Tmax in CD-1 mouse at 15 mg/kg, po measured up to 24 hrs by LC-MS/MS analysis; type: ADME, organism-based; details: in vivo
Mus musculus [27] = experiment: In vivo inhibition of polymerase acid protein (PA) protein expression in H1N1 influenza virus infected in BALB/c mouse at 20 to 40 mg/kg single oral dose by Western blot analysis; type: functional, organism-based; details: dose 20-40 mg/kg
[28] = Cmax in CD-1 mouse at 1 mg/kg, iv measured up to 24 hrs by LC-MS/MS analysis; type: ADME, organism-based; details: in vivo
[29] = Metabolic stability in mouse liver microsomes assessed as intrinsic clearance measured up to 60 mins by LC-MS/MS analysis; type: ADME, Microsome; details: read-out: CLH
Mus musculus [30] = experiment: In vivo inhibition of polymerase acid protein (PA) mRNA expression in H1N1 influenza virus infected in BALB/c mouse at 20 to 40 mg/kg single oral dose by qRT-PCR analysis; type: functional, organism-based; details: dose 20-40 mg/kg
[31] = MRT (0 to infinity) in CD-1 mouse at 1 mg/kg, iv measured up to 24 hrs by LC-MS/MS analysis; type: ADME, organism-based; details: in vivo
[32] = Tmax in CD-1 mouse at 1 mg/kg, iv measured up to 24 hrs by LC-MS/MS analysis; type: ADME, organism-based; details: in vivo
Mus musculus [33] = experiment: In vivo inhibition of […] (PA) mRNA expression in H1N1 influenza virus infected in BALB/c mouse at 20 to 40 mg/kg single oral dose by qRT-PCR analysis; type: functional, organism-based; details: dose 20-40 mg/kg
Influenza A virus [34] = experiment: In vivo antiviral activity against influenza strain A/WSN/1933 (H1N1) infected in BALB/c mouse assessed as inhibition of virus-induced inflammatory cytokine IFNgamma level at 10 to 40 mg/kg, IG treated 12 hrs after infection measured on 9 dpi; type: functional, organism-based; details: dose 10-40 mg/kg, time 9.0 day
[35] = Acute toxicity in CD-1 mouse assessed as clinical signs of toxicity at 2000 mg/kg, po single dose measured for 2 weeks; type: organism-based; details: in vivo, 336 h
Influenza A virus [36] = experiment: In vivo antiviral activity against influenza strain A/WSN/1933 (H1N1) infected in BALB/c mouse assessed as reduction in overall inflammation in lungs at 10 to 20 mg/kg, IG treated 12 hrs after infection measured on 9 dpi by histopathological analysis; type: functional, organism-based; details: dose 10-20 mg/kg, time 9.0 day
Influenza A virus [37] = experiment: In vivo antiviral activity against influenza strain A/WSN/1933 (H1N1) infected in BALB/c mouse assessed as inhibition of virus-induced inflammatory cytokine TNF-alpha level at 10 to 40 mg/kg, IG treated 12 hrs after infection measured on 9 dpi; type: functional, organism-based; details: dose 10-40 mg/kg, time 9.0 day
Influenza A virus [38] = experiment: In vivo antiviral activity against influenza strain A/WSN/1933 (H1N1) infected in BALB/c mouse assessed as inhibition of virus-induced inflammatory cytokine IL-6 level at 10 to 40 mg/kg, IG treated 12 hrs after infection measured on 9 dpi; type: functional, organism-based; details: dose 10-40 mg/kg, time 9.0 day
[39] = Acute toxicity in CD-1 mouse assessed as abnormal lesions in lungs at 2000 mg/kg, po single dose measured for 2 weeks by macroscopic examination; type: organism-based; details: in vivo, 336 h
[40] = Acute toxicity in CD-1 mouse assessed as mouse survival at 2000 mg/kg, po single dose measured for 2 weeks; type: organism-based; details: in vivo, 336 h
[41] = Acute toxicity in CD-1 mouse assessed as abnormal lesions in intestine at 2000 mg/kg, po single dose measured for 2 weeks by macroscopic examination; type: organism-based; details: in vivo, 336 h
[42] = Acute toxicity in CD-1 mouse assessed as abnormal lesions in kidney at 2000 mg/kg, po single dose measured for 2 weeks by macroscopic examination; type: organism-based; details: in vivo, 336 h
Influenza A virus [43] = experiment: In vivo antiviral activity against influenza strain A/WSN/1933 (H1N1) infected in BALB/c mouse assessed as improvement in alveolar collapse in lungs at 10 to 20 mg/kg, IG treated 12 hrs after infection measured on 9 dpi by histopathological analysis; type: functional, organism-based; details: dose 10-20 mg/kg, time 9.0 day
[44] = Acute toxicity in CD-1 mouse assessed as abnormal lesions in spleen at 2000 mg/kg, po single dose measured for 2 weeks by macroscopic examination; type: organism-based; details: in vivo, 336 h
Influenza A virus [45] = experiment: In vivo antiviral activity against influenza strain A/WSN/1933 (H1N1) infected in BALB/c mouse assessed as inhibition of virus-induced inflammatory cytokine IL-1beta level at 10 to 40 mg/kg, IG treated 12 hrs after infection measured on 9 dpi; type: functional, organism-based; details: dose 10-40 mg/kg, time 9.0 day
Influenza A virus [46] = experiment: In vivo antiviral activity against influenza strain A/WSN/1933 (H1N1) infected in BALB/c mouse assessed as improvement in septal thickening in lungs at 10 to 20 mg/kg, IG treated 12 hrs after infection measured on 9 dpi by histopathological analysis; type: functional, organism-based; details: dose 10-20 mg/kg, time 9.0 day

O=C1c2c(O)c(=O)ccn2N([C@@H]2c3ccccc3SCc3c2ccc(F)c3F)[C@@H]2COCCN12 [BALOXAVIR]
AUC ([1]; mouse, iv, 1 mg/kg, 24 h): 239 ng·h/mL
CC50 at 48 h [2]: 2.86 µM
CC50 at 48 h [3]: 19.1 µM
EC50 (Influenza A virus [4]): 3.81 nM
Activity (Influenza A virus [5]): Active
AUC ([6]; mouse, po, 15 mg/kg, 24 h): 2877 ng·h/mL
CC50 at 48 h [7]: 9.34 µM
Activity (Influenza A virus [8]): Active
selectivity ratio [9]: 2440
selectivity ratio [10]: 5290
CC50 at 48 h [11]: 7.38 µM
EC50 (Influenza A virus [12]): 1.75 nM
EC50 (Influenza A virus [13]): 1.76 nM
F ([14]; mouse, po, 15 mg/kg, 24 h): 27.2%
Activity (Influenza A virus [15]): Active
Activity (Influenza A virus [16]): Active; Surviving Animals Gradually Starting Weight Weight Beginning 9 Dpi

O=C1c2c(O)c(=O)ccn2N([C@@H](c2ccc(F)c(F)c2)c2cccs2)[C@@H]2COCCN12
CLint scaled [17]: 1.62 mL/min/kg
AUC(0-inf) ([1]; CD-1, mouse): 1230 ng·h/mL
half-life [18]: 2310 min
CC50 at 48 h [2]: 13.8 µM
CC50 at 48 h [19]: 34.2 µM
MRT inf [20]: 2.77 h
Activity (HEK293T): Dose-dependent-effect
half-life [21]: 206 min
CC50 at 48 h [3]: > 50 µM
EC50 (Influenza A virus [4]): 4.77 nM
Cmax [22]: 4070 ng/mL
half-life [23]: 770 min
AUC(0-inf) ([6]; CD-1, mouse): 11100 ng·h/mL
CC50 at 48 h [7]: 41.6 µM
inhibition (Mus musculus [24]): Active
selectivity ratio [9]: 7180
half-life [25]: 258 min
Tmax [26]: 25.2 min
inhibition (Mus musculus [27]): Active
selectivity ratio [10]: 18200
CC50 at 48 h [11]: 46.3 µM
Cmax [28]: 940 ng/mL
CLint scaled [29]: 2.38 mL/min/kg
EC50 (Influenza A virus [12]): 2.49 nM
inhibition (Mus musculus [30]): Active
MRT inf [31]: 2.98 h
Tmax [32]: 4.8 min
inhibition (Mus musculus [33]): Active
EC50 (Influenza A virus [13]): 1.88 nM
bioavailability ([14]; CD-1, mouse): 71.6%

COC(=O)OCOc1c2n(ccc1=O)N([C@@H](c1ccc(F)c(F)c1)c1cccs1)[C@@H]1COCCN1C2=O
Activity (Influenza A virus [34]): Active
CC50 at 48 h [2]: 29.9 µM
Activity [35]: Non-toxic
Activity (Influenza A virus [36]): Active
Activity (Influenza A virus [37]): Active
CC50 at 48 h [3]: > 50 µM
Activity (Influenza A virus [5]): Active
Activity (Influenza A virus [38]): Active
CC50 at 48 h [7]: 60.1 µM
Activity [39]: Non-toxic
Activity (Influenza A virus [8]): Active
Activity [40]: Non-toxic
Activity [41]: Non-toxic
Activity [42]: Non-toxic
CC50 at 48 h [11]: > 50 µM
Activity (Influenza A virus [43]): inactive
Activity (Influenza A virus [15]): Active
Activity [44]: Non-toxic
Activity (Influenza A virus [16]): Active; Surviving Animals Gradually Starting Weight Weight Beginning 9 Dpi
Activity (Influenza A virus [45]): Active
Activity (Influenza A virus [46]): inactive

Source: ChEMBL document CHEMBL6078703, “Discovery of Novel Thiophene-Based Baloxavir Derivatives as Potent Cap-Dependent Endonuclease Inhibitors for Influenza Treatment” (J Med Chem, 2024)
